Data taken from patent US5093519A, “Vitamin D derivatives: therapeutic applications and applications to assays of metabolities of vitamin D” (priority 1988, dated 1992).
Like-named read-outs stand apart in the source and are kept apart here.

How the values were obtained:
[1] = background knowledge, cited from earlier work
[2] = system: intracellular receptor of vitamin D; settings: background knowledge; cited from earlier work
[3] = system: vitamin D-binding protein (DBP); settings: background knowledge, cited from earlier work
[4] = system: human lymphocytes; test: Inhibition of proliferation of PHA-stimulated human lymphocytes; assay type: cell-based; settings: for inhibition of lymphocyte proliferation (in words): compound alone; for antagonist effect in lymphocyte proliferation test: 10^-10 M derivative added to 1,25-(OH)2 -vitamin D3; for inhibition of lymphocyte proliferation, less active than 1,25-(OH)2 -vitamin D3: fold less active than 1,25-(OH)2 -vitamin D3
Text: For example, if the proliferative response of human lymphocytes stimulated with PHA is 100 in the absence of vitamin D3, it is reduced to 66.5 in the presence of 10^-11 M 1,25-(OH)2 -vitamin D3 (Table 1). In the same test, the addition of 11-(2-hydroxyethyl)-1,25-(OH)2 -D3 induces no inhibition at 10^-10 M (102.6).
(§1) Bibliographic References 21, 22 and 23 served as references for the methodology of the tests of binding to DBP and to the receptor, and of the test of inhibition of lymphocyte proliferation.

[5] = system: HL 60 cells; test: Differentiation of HL 60 leukemic cells in vitro; assay type: cell-based; settings: in words
Text: This is, in effect, directly confirmed in various biological tests (induction of the differentiation HL 60 leukemic cells, inhibition of lymphocyte proliferation, modification of the proliferation of cancer cells, calciotropic effect, and the like). FIGS. (3-4) illustrate the effect of different analogs on the differentiation of HL 60 leukemic cells.

[6] = target: T1, intracellular receptor for vitamin D (Rattus norvegicus, UniProt P13053); test: Binding to the intracellular receptor for vitamin D, displacement of [^3 H]-1,25-(OH)2 -vitamin D3 (rat duodenum); settings: in words
T1 construct: from tissue; host or cells: rat duodenum
T1 sequence (P13053 1-423): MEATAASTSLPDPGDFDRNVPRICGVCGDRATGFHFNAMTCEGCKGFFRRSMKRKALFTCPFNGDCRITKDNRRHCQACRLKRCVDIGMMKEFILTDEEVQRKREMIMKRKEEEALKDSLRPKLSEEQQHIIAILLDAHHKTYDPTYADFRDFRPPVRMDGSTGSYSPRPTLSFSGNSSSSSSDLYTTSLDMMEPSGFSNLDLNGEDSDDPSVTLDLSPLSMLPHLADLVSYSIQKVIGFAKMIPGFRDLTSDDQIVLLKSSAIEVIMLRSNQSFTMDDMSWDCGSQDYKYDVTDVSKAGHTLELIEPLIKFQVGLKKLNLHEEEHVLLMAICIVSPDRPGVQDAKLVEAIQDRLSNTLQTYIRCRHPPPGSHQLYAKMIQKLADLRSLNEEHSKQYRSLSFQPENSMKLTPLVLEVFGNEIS
Text: Binding of 1,25-(OH)2 -vitamin D and two C^11 -derivatives to the intracellular receptor for vitamin D, measured by displacement of the binding of the tracer ]^3 H]-1,25-(OH)2 -vitamin D3.
The affinity, however, is approximately 100- to 200-fold lower than that of 1,25-(OH)2 -vitamin D3. This experiment is reproducible with receptors of different origins (rat duodenum in the example illustrated, but also calf thymus, human lymphocytes, and the like).
as §1

[7] = target: T2, purified human DBP (Homo sapiens, UniProt P02774); test: Binding to purified human DBP, displacement of [^3 H]-25-OH-vitamin D3; settings: in words; FIG. 1
T2 construct: displacement of [3H]-25-OH-vitamin D3
T2 sequence (P02774 17-474): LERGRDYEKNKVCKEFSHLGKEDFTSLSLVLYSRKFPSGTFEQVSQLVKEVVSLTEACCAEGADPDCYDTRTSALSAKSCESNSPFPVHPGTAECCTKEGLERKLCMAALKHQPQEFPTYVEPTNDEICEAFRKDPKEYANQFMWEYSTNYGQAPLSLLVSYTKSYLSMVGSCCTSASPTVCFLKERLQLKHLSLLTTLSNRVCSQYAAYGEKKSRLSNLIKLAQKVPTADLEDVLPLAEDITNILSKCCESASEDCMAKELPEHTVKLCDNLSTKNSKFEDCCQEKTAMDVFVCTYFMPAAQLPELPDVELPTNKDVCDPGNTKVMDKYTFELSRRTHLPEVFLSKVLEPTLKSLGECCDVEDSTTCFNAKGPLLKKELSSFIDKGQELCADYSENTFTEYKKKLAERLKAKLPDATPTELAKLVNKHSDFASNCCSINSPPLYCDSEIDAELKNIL
Text: Binding to purified human DBP of 25-OH-vitamin D3, 1,25-(OH)2 -vitamin D3 and some C^11 -derivatives of these molecules, measured by displacement of the binding of the tracer [^3 H]-25-OH-vitamin D3.
This affinity is not modified with an 11-hydroxyethyl derivative. […] This property has been turned to good account for obtaining analogs which can be iodinated via their branch at C^11, and these derivatives have been used successfully, for example, for developing the first specific assay for 25-OH-vitamin D3 using an iodinated tracer.
as §1

C=C1/C(=C\C=C2/CCC[C@]3(C)[C@@H]([C@H](C)CCCC(C)(C)O)CC[C@@H]23)C[C@@H](O)C[C@@H]1O [1,25-(OH)2-vitamin D3]
half-life [1]: short half-life | therapeutic index ([1]; listed as 1,25-(OH)2)-vitamin D): very narrow therapeutic index | therapeutic index ([1]; listed as 1,25-(OH)2 -Vitamin D): narrow | affinity for the intracellular receptor of vitamin D [2]: high affinity | affinity for DBP [3]: lower affinity | affinity for DBP ([3]; listed as 1α,25-(OH)2 -vitamin D): low affinity | lymphocyte proliferation ([4]; 1,25-(OH)2 -vitamin D3 10^-11 M alone, 100% in absence of vitamin D3, 1e-05 µM): 66.5% | lymphocyte proliferation ([4]; 1,25-(OH)2 -vitamin D3 10^-12 M alone, 100% in absence of vitamin D3, 1e-06 µM): 93.8% | inhibition of lymphocyte proliferation (in words) [4]: marked inhibition of proliferation | biological activity in a test of differentiation of HL 60 cells ([5]; FIGS. 3-4): active

C=C1/C(=C\C=C2/C[C@H](CCOC(=O)CCC(=O)O)C[C@]3(C)[C@@H]([C@H](C)CCCC(C)(C)O)CC[C@@H]23)C[C@@H](O)C[C@@H]1O [11β-(2-hemisuccinoyloxyethyl)]
binding to the vitamin D3 receptor ([6]; FIG. 2): bind the vitamin D3 receptor

C=C1CC[C@H](O)C/C1=C/C=C1\CCC[C@]2(C)[C@@H]([C@H](C)CCCC(C)(C)O)CC[C@@H]12 [25-OH-vitamin D3]
affinity for the intracellular receptor of vitamin D [2]: low affinity | affinity for DBP [3]: high affinity | biological activity in a test of differentiation of HL 60 cells ([5]; FIGS. 3-4): of low activity

C=C1/C(=C\C=C2/C[C@H](C)C[C@]3(C)[C@@H]([C@H](C)CCCC(C)(C)O)CC[C@@H]23)C[C@@H](O)C[C@@H]1O [compound 47, 1α,25-(OH)2-11α-methylvitamin D3]
biological activity in a test of differentiation of HL 60 cells ([5]; FIGS. 3-4, listed as 11α-methyl-1,25-(OH)2 -vitamin D3): strong activity, approaching that of 1,25-(OH)2 -vitamin D3 | biological activity in a test of differentiation of HL 60 cells ([5]; FIGS. 3-4, listed as methyl derivative): very active | binding to the vitamin D3 receptor ([6]; FIG. 2): affinity comparable to unsubstituted 1,25-(OH)2 -vitamin D3

C=C1/C(=C\C=C2/C[C@H](c3ccccc3)C[C@]3(C)[C@@H]([C@H](C)CCCC(C)(C)O)CC[C@@H]23)C[C@@H](O)C[C@@H]1O [compound 48, 1α,25-(OH)2-11α-phenylvitamin D3]
biological activity in a test of differentiation of HL 60 cells ([5]; FIGS. 3-4, listed as 11α-phenyl-1,25-(OH)2 -vitamin D3): active | biological activity in a test of differentiation of HL 60 cells ([5]; FIGS. 3-4, listed as phenyl derivative): moderately active | binding to the vitamin D3 receptor ([6]; FIG. 2): binds the receptor better than the 11α-hydroxyethyl derivatives

C=C1/C(=C\C=C2/C[C@H](CCO)C[C@]3(C)[C@@H]([C@H](C)CCCC(C)(C)O)CC[C@@H]23)C[C@@H](O)C[C@@H]1O [compound 49, 11α-(2-OH-ethyl)-1,25-(OH)2-vitamin D3]
binding to purified human DBP [7]: not modified | antagonist effect in lymphocyte proliferation test ([4]; listed as 11-(2-hydroxyethyl)-1,25-(OH)2 -D3): antagonizes its inhibitory effect | antagonist effect in lymphocyte proliferation test ([4]; listed as 11-(OH-ethyl) derivative): behaves as a partial antagonist of vitamin D3 | lymphocyte proliferation ([4]; 11-(2-OH-Ethyl) derivative 10^-10 M + 1,25-(OH)2 -vitamin D3 10^-11 M, 0.0001 µM): 91.8% | lymphocyte proliferation ([4]; 11-(2-OH-Ethyl) derivative 10^-10 M + 1,25-(OH)2 -vitamin D3 10^-12 M, 0.0001 µM): 98.5% | activity at 0.0001 µM ([4]; Homo sapiens, Lymphocyte, 10^-10 M alone, response is 100 in the absence of vitamin D3, read-out: proliferative response of lymphocytes): 103% | inhibition of lymphocyte proliferation (in words) [4]: no inhibition | inhibition of lymphocyte proliferation, less active than 1,25-(OH)2 -vitamin D3 [4]: 100 fold | biological activity in a test of differentiation of HL 60 cells ([5]; FIGS. 3-4): of low activity | binding to the vitamin D3 receptor ([6]; FIG. 2, listed as 11α-(hydroxyethyl)): bind the vitamin D3 receptor | binding to the vitamin D3 receptor ([6]; FIG. 2, listed as 11α-(hydroxyethyl)-1,25-(OH)2 -vitamin D3): comparable

C=C1/C(=C\C=C2/C[C@H](CCOC(=O)CCC(=O)O)C[C@]3(C)[C@@H]([C@H](C)CCCC(C)(C)O)CC[C@@H]23)C[C@@H](O)C[C@@H]1O [compound 50, 11α-(2-HS-ethyl)-1,25-(OH)2-vitamin D3]
inhibition of lymphocyte proliferation, less active than 1,25-(OH)2 -vitamin D3 [4]: approximately 1000 fold | binding to the vitamin D3 receptor ([6]; FIG. 2, listed as 11α-(2-hemisuccinoyloxyethyl vitamin D3)): comparable

C=C1CCC(O)CC1=CC=C1CC(CCO)CC2(C)C1CCC2C(C)CCCC(C)(C)O (centres unmarked) [compound 56, 11-(2-hydroxyethyl)-25-OH-vitamin D3]
biological activity in a test of differentiation of HL 60 cells ([5]; FIGS. 3-4): of low activity

C=C1CC[C@H](O)C/C1=C/C=C1\C[C@H](CCOC(=O)CCC(=O)O)C[C@]2(C)[C@@H]([C@H](C)CCCC(C)(C)O)CC[C@@H]12 [compound 57, 11-(2-HS-ethyl)-25-OH-vitamin D3]
binding to purified human DBP [7]: does not necessarily modify this affinity substantially
